# Source: patent US12337010B2, “Compositions and methods of treatment using nicotinamide mononucleotide” (Washington University, priority 2017, dated 2025)
# Molecular target: T1, Slc12a8 (Mus musculus, UniProt Q8VI23)
# T1 construct: NIH3T3 cells were transfected with 5 μg of pCXN2 carrying the full-length Slc12a8 cDNA (Slc12a8-OE); expressed in transfected cells
# T1 sequence (Q8VI23 1-705): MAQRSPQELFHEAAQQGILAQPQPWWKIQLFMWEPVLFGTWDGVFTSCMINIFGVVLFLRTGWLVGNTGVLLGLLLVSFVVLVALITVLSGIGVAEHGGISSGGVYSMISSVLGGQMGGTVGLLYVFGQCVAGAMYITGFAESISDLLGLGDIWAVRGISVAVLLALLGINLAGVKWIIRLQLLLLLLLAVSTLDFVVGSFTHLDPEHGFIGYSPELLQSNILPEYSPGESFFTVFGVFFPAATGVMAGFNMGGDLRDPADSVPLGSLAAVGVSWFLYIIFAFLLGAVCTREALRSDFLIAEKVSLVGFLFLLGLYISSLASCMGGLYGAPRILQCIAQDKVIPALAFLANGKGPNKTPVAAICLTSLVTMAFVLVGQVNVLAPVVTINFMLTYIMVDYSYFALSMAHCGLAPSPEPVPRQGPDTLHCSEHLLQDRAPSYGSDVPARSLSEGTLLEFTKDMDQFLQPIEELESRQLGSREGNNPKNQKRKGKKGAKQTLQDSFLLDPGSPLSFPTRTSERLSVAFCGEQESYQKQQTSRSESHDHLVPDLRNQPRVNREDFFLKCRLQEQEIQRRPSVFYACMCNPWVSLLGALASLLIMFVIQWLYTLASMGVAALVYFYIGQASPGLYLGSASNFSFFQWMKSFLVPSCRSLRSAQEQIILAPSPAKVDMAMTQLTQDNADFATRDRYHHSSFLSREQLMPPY
# Experiment: Radiolabeled NMN uptake in Slc12a8-OE and control NIH3T3 cells
# Type: cell-based
# Conditions: Slc12a8-OE NIH3T3 cells, 4 min, 37° C., control background subtracted
# Method: NMN uptake analyses with radiolabeled NMN. Control and Slc12a8-OE NIH3T3 cells were harvested by centrifugation (400×g, 5 min), washed once in HBSS, and incubated at 37° C. in HBSS [pH 7.5] (5×10^6 cells/ml) containing 100 nM 3H-β-Nicotinamide mononucleotide (9 Ci/mmol; Moravek Biochemicals, CA) and unlabeled NMN to make the final concentration 25 μM. At the designated time points (1, 3, 5 and 10 minutes), aliquots of the cells (100 μl) were collected and placed in 1.5-ml microcentrifuge tubes containing silicone-mineral oil (density, 1.015; Sigma-Aldrich) on the top of 2 M potassium hydroxide solution, followed by centrifugation at 16,000×g for 30s. Cells were separated from the buffer and pelleted through the silicone-mineral oil layer. The radioactivity in these cell pellets was determined by a liquid scintillation counter. For calculating Km and Vmax, the same conditions were used as described above, but with various total concentrations of NMN, ranging from 1 μM to 100 μM. At the 4-min time point, 100 μl of cell suspension was collected and pelleted in the same way described above. The radioactivity in cell pellets was determined by a liquid scintillation counter. The radioactivity measured in control NIH3T3 cells was subtracted to calculate Slc12a8-specific NMN uptake in Slc12a8-OE NIH3T3 cells.
# Uptake of NMN was measured as described in methods under “NMN uptake analyses with radiolabeled NMN” using 25 μM ^3H-NMN at 37° C. in control and Slc12a8-OE NIH3T3 cells over 10 min in Hanks' buffer [ph7.5] with Mg2+ and Ca2+ (n=12; analyzed by ANOVA with Sidak's test). […] This Km is qualitatively consistent with a detected range of NMN concentrations in mouse plasma and erythrocytes (Revollo, J. R. et al., Cell Metab., 6, 363-375, 2007; Ramsey, K. M., et al., Science, 324, 651-654, 2009; Yamada, K., et al., Anal. Biochem., 352, 282-285, 2006).
compound,measurement,value
"NC(=O)c1ccc[n+]([C@@H]2O[C@H](COP(=O)([O-])O)[C@@H](O)[C@H]2O)c1 [NMN, nicotinamide mononucleotide]",Km,34.1 ± 8.3 µM
same,Vmax,11.5 ± 1.2 pmol/min/mg
